Data on one compound can be found in US9358224B2, “Pharmaceutical formulation comprising a phosphodiesterase inhibitor” (CHIESI FARMACEUTICI S.p.A., priority 2011, dated 2016).

SMILES strings stand for the structures.

The data set can be described thus: Chemical stability study of the pMDI formulation at 25° C./60% RH. The settings on record: 1 and 3 months at 25° C./60% RH. It counts as physicochemical. How it is done:
Physical and chemical stability of the formulation reported in table 1 has been assessed in a stability study at 1 and 3 months at 25° C./60% relative humidity (RH).
Chemical stability and performances data of the formulation are reported in Table 2, wherein “mean delivered dose intra-can” means the mean delivered dose of ten actuations on the same can (3 actuations at the beginning, 4 actuations in the middle and 3 actuations at the end of the life of the can).

In the case of `CS(=O)(=O)Nc1ccc(C(=O)OC(Cc2c(Cl)c[n+]([O-])cc2Cl)c2ccc(OC(F)F)c(OCC3CC3)c2)cc1OCC1CC1` (single isomer, unassigned; (-)) [Compound C2, (−)-3-Cyclopropylmethoxy-4-methanesulfonylamino-benzoic acid 1-(3-cyclopropylmethoxy-4-difluoromethoxy-phenyl)-2-(3,5-dichloro-1-oxy-pyridin-4-yl)-ethyl ester], the “chemical stability of C2 in the formulation (in words)” value is “no degradation during stability”.
